US20210070718A1, “NOVEL PHENYLSULFONYL OXAZOLE DERIVATIVE AND USE THEREOF” (priority 2018, published 2021)

Columns and labels:
Type in all cases: in vivo
APP/PS1 mouse [1] = experiment: Astrocyte (GFAP) and microglia (Iba-1) immunofluorescence in brain; conditions: 50 mg/kg intraperitoneally 3 times a week for 2 months, compared with APP/PS1 mouse
Text: (§1) A mouse experiment was approved by the Kyungpook National University Institutional Animal Care and Use Committee (IACUC). As an animal model of neurodegenerative disease (particularly, Alzheimer's disease), a transgenic mouse line overexpressing APPswe (hAPP695swe) and PS1 (presenilin-1M146V) based on a C57BL/6 mouse (Charles River, UK) was used. [hereinafter, APP/PS1 mouse (denoted by AD), GlaxoSmithKline Co., Ltd.]
To confirm a therapeutic effect of the autophagy enhancing compound obtained in <Example 1>, an experimental substance was administered to the animal model according to the experimental outline (schedule) illustrated in FIG. 1. Specifically, PBS or the autophagy enhancing compound was intraperitoneally injected into a 6.5-month-old mouse 3 times a week at a dose of 50 mg/kg. […]
After immobilization of the mouse's cerebrum and hippocampus, 0.5% thioflavin S (Sigma-Aldrich), anti-20G10 against Aβ42 (mouse, 1:1000) and anti-G30 against A1340 (rabbit, 1:1000), anti-GFAP (rabbit, 1:500, DAKO) and anti-Iba-1 (rabbit, 1:500, WAKO) were incubated together. The sites were analyzed using a confocal laser scanning microscope or an Olympus BX51 microscope equipped with Fluoview SV1000 imaging software (Olympus FV1000, Japan). A percentage of an area of a stained area to an area of total tissues was quantified and analyzed by using Metamorph software (Molecular Devices). […]

APP/PS1 mouse [2] = experiment: Fear conditioning test; conditions: 50 mg/kg intraperitoneally 3 times a week for 2 months, FIG. 5D
Text: as §1
(§2) To confirm a therapeutic effect of the autophagy enhancing compound obtained in <Example 1>, an experimental substance was administered to the animal model according to the experimental outline (schedule) illustrated in FIG. 1. Specifically, PBS or the autophagy enhancing compound was intraperitoneally injected into a 6.5-month-old mouse 3 times a week at a dose of 50 mg/kg. After two months of the injection of the autophagy enhancing compound, behavioral analysis was performed, and the brain tissue of the mouse was used as a sample after the behavioral analysis (i.e., at 9.5 […] of mouse) (see FIG. 1).
(§3) In order to confirm potential effects on learning and memory, Morris water maze (MWM) and fear conditioning tests were performed. In the MWM, the mouse learned a task 4 times a day for 10 days, a platform was removed on day 11, and a probe trial was performed. […]

APP/PS1 mouse [3] = experiment: Morris water maze (MWM) test; conditions: 50 mg/kg intraperitoneally 3 times a week for 2 months, FIGS. 5A to 5C
Text: as §1, §2, §3

APP/PS1 mouse [4] = experiment: Real-time quantitative PCR of inflammatory cytokines in brain tissue; conditions: 50 mg/kg intraperitoneally 3 times a week for 2 months, brain mRNA, FIG. 6C
Text: as §1, §2
A real-time quantitative PCR method was used to measure the expression levels of inflammatory response-related cytokines (TNF-α, IL-1β, and IL-6). Total RNA was extracted from the brain tissue using an RNeasy Plus mini kit (Qiagen, Korea, Ltd), and cDNA was synthesized from a total of 5 μg of RNA using a kit from Clontech (Mountain View, Calif.). In addition, by using a Corbett research RG-6000 real-time PCR instrument, real-time quantitative PCR was performed by setting 95° C., 10 minutes; 95° C., 10 seconds; and 58° C., 15 seconds as one cycle and repeating 40 cycles.

APP/PS1 mouse [5] = experiment: Western blotting of autophagy-related proteins in brain tissue
Text: as §1, §2
Expression of the following genes was analyzed using Western blotting. First, antibodies against LC3, beclin-1, and p62 [all, purchased from cell signaling Technologies], cathepsin D (R&D systems) and β-actin (Santa Cruz) were used, and density quantification was performed by using ImageJ software (US National Institutes of Health).
In order to confirm how the aforementioned autophagy enhancing compound (in particular, 5-methoxy-4-(phenylsulfonyl)-2-(4-(trifluoromethyl)phenyl)oxazole) actually act in an autophagy-related pathway in vivo, conversion of LC3-I to LC3-II, and expression levels of beclin-1, cathepsin D and p62 were confirmed through a Western blotting experiment in brain tissue samples of 9.5-month-old WT, APP/PS1 (untreated group), and an APP/PS1 mouse injected with the autophagy enhancing compound.

APP/PS1 mouse [6] = experiment: Amyloid-β and tau deposition by thioflavin S / immunofluorescence staining in brain cortex and hippocampus; conditions: 50 mg/kg intraperitoneally 3 times a week for 2 months, compared to APP/PS1 mouse (PBS)
Text: as §1, §2
After immobilization of the mouse's cerebrum and hippocampus, 0.5% thioflavin S (Sigma-Aldrich), anti-20G10 against Aβ42 (mouse, 1:1000) and anti-G30 against A1340 (rabbit, 1:1000), anti-GFAP (rabbit, 1:500, DAKO) and anti-Iba-1 (rabbit, 1:500, WAKO) were incubated together. The sites were analyzed using a confocal laser scanning microscope or an Olympus BX51 microscope equipped with Fluoview SV1000 imaging software (Olympus FV1000, Japan). A percentage of an area of a stained area to an area of total tissues was quantified and analyzed by using Metamorph software (Molecular Devices).
In order to determine whether the aforementioned autophagy enhancing compound had effects for prevention and treatment on neurodegenerative disease, the effect of the compound on an Alzheimer's model was representatively evaluated.
First, an amyloid-β (Aβ) profile of an Alzheimer's lesion and the deposition degree of tau protein were confirmed. First, the cerebral cortex and hippocampus regions of the mouse were stained with thioflavin S (ThioS) according to a known method to confirm the deposition degree of fibrillar amyloid-β. In addition, immunofluorescence staining of Aβ40, Aβ42, and AT8 was performed to confirm the deposition degree of amyloid-β and tau protein.

[7] = 9.5-month-old APP/PS1 mouse, 50 mg/kg intraperitoneally 3 times a week for 2 months, versus increased level in APP/PS1 mouse

COc1oc(-c2ccc(C(F)(F)F)cc2)nc1S(=O)(=O)c1ccccc1 [autophagy enhancing compound, 5-methoxy-4-(phenylsulfonyl)-2-(4-(trifluoromethyl)phenyl)oxazole]
activity of astrocytes (GFAP) (APP/PS1 mouse [1]; FIG. 6A): significantly reduced | activity of microglia (Iba-1) (APP/PS1 mouse [1]; FIG. 6B): significantly reduced | memory in fear conditioning test (contextual and tone tasks) (APP/PS1 mouse [2]): remarkable memory improvement effect | impairment in spatial memory, cognition and memory formation (Morris water maze) (APP/PS1 mouse [3]): significantly improved | gene expression of inflammatory cytokine IL-1β (APP/PS1 mouse [4]): restored to a normal level | gene expression of inflammatory cytokine IL-6 (APP/PS1 mouse [4]): restored to a normal level | gene expression of inflammatory cytokine TNF-α (APP/PS1 mouse [4]): restored to a normal level | level of LC3-II (APP/PS1 mouse [5]; 9.5-month-old APP/PS1 mouse, 50 mg/kg intraperitoneally 3 times a week for 2 months, FIG. 7): decreased to a level similar to WT | expression level of cathepsin D (APP/PS1 mouse [5]; [7]): decreased | expression level of p62 (APP/PS1 mouse [5]; [7]): decreased | expression of beclin-1 (APP/PS1 mouse [5]; 9.5-month-old WT, APP/PS1 and injected APP/PS1 mouse, FIG. 7): no large difference in the three groups | deposition of fibrillar Aβ (thioflavin S) (APP/PS1 mouse [6]; cerebral cortex and hippocampus, FIG. 2): significantly low | deposition of Aβ40 (APP/PS1 mouse [6]; cortex and hippocampus, FIG. 3A): significantly low | deposition of Aβ42 (APP/PS1 mouse [6]; cortex and hippocampus, FIG. 3B): significantly low | deposition of tau protein (AT8) (APP/PS1 mouse [6]; cortex and hippocampus, FIG. 4): significantly low
